Values quoted from earlier work as cited in patent US20240066044A1, “METHODS AND COMPOSITIONS FOR INCREASING NAD+ METABOLOME IN HEALTHY MIDDLE-AGED POPULATION” (Bioenergy Life Science, Inc., priority 2021, published 2024).
Where two headings read alike, the source gives them in different places.

Structure (SMILES): NC(=O)c1cccnc1 [NAM, nicotinamide]
- daily tolerable upper dietary intake (Canada): 500 mg
- daily tolerable upper dietary intake (EU): 900 mg
- daily tolerable upper dietary intake (Japan): 5 mg/kg
- doses at which NAM is ineffective for boosting NAD+ (NAD+): below 90 mg per day
